Experimental data as given in publication PMC6792352, “Limited Chemical Structural Diversity Found to Modulate Thyroid Hormone Receptor in the Tox21 Chemical Library” (Environmental Health Perspectives, 2019).
Read-outs that look alike come from different tables or passages of the source.

Tests used:
[1] = biological target: T1, TRα ligand-binding domain (Homo sapiens, UniProt P10827); test: TRa-coa LanthaScreen TR-FRET coactivator (SRC-2 peptide) recruitment, agonist (TOX21_TRA_COA_Agonist_Followup_ratio, aeid 2230); type: biochemical
T1 construct: the receptor LBDs expressed as glutathione S-transferase (GST) fusion proteins; purchased
T1 sequence (P10827 163-410 isoform P10827-2 limits assumed, other chains not shown): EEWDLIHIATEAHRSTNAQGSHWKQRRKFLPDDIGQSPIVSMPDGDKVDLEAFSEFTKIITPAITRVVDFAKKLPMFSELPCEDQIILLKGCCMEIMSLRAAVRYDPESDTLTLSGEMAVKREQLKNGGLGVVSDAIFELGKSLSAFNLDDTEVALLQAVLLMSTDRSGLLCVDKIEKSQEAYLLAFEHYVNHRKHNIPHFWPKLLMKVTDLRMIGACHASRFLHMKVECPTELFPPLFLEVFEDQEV

[2] = biological target: T2, human RXRα (Homo sapiens, UniProt P19793); test: RXRa-bla-Ag mammalian one-hybrid beta-lactamase assay (TOX21_TR_RXR_BLA_Agonist_Followup_ratio, aeid 2253); type: cell-based
T2 construct: host or cells: GeneBLAzer UAS-bla HEK 293T
T2 sequence (P19793 227-458 limits assumed): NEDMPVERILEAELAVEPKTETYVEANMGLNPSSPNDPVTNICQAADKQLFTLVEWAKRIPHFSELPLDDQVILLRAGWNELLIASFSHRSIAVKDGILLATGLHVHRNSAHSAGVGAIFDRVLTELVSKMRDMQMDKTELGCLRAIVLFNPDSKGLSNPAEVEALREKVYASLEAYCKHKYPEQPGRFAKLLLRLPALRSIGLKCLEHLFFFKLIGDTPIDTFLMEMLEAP

[3] = biological target: T3, human TRβ ligand-binding domain (Homo sapiens, UniProt P10828); test: TRb-coa LanthaScreen TR-FRET coactivator (SRC-2 peptide) recruitment, agonist (TOX21_TRB_COA_Agonist_Followup_ratio, aeid 2244); type: biochemical; set-up: host or cells: GeneBLAzer UAS-bla HEK 293T
T3 sequence (P10828 217-461 limits assumed): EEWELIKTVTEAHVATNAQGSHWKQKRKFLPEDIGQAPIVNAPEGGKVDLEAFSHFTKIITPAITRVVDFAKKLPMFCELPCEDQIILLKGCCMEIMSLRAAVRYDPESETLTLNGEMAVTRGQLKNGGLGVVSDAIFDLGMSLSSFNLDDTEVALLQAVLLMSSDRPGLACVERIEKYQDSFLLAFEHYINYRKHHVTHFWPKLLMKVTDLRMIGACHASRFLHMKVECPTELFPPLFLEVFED

[4] = biological target: T3, human TRβ ligand-binding domain; test: TRb-bla agonist mammalian one-hybrid beta-lactamase assay (TOX21_TRB_BLA_Agonist_Followup_ratio, aeid 2236); type: cell-based; set-up: host or cells: GeneBLAzer UAS-bla HEK 293T
[5] = test system: GH3-TRE-Luc cell line
[6] = Global cytotoxicity: eighteen Tox21 cell viability assays; type: cell-based
[7] = test system: Tox21 cell viability assays (different cell types); test: as above; type: cell-based
[8] = test system: thyroid hormone receptor (endogenous TRα and TRβ); test: GH3-TRE-Ag primary qHTS, luciferase reporter, agonist mode (TOX21_TR_LUC_GH3_Agonist, aeid 803); type: cell-based, rat
[9] = test system: thyroid hormone receptor (TR); test: Classification of TR actives across characterization assays (TR-Ag / RXR-Ag; TR model binary)
How it was run: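 Pharmaceuticals excluded; actives called from GH3-TRE qHTS (agonist, antagonist, viability) on 8,305 chemicals. Confirmation of 84 selected chemicals used GH3-TRE-Ag, mammalian one-hybrid TRβ and RXRα UAS-bla HEK 293T specificity screens, parental HEK293T viability, and two TR:coactivator recruitment assays.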

[10] = test system: thyroid hormone receptor (endogenous TRα and TRβ); test: GH3-TRE-Ag-Followup confirmation (TOX21_TR_LUC_GH3_Agonist_Followup, aeid 2226); type: cell-based, rat

Categorization Code ([9]; TR agonist characterization): RXR-Ag
Classification ([9]; TR-Ag = TR agonist, RXR-Ag = RXR agonist): RXR-Ag
AC50: > 92 µM
SMILES: CSCC[C@H](NC(=O)[C@H](Cc1ccc(OS(=O)(=O)O)cc1)NC(=O)[C@@H](N)CC(=O)O)C(=O)NCC(=O)N[C@@H](Cc1c[nH]c2ccccc12)C(=O)N[C@@H](CCSC)C(=O)N[C@@H](CC(=O)O)C(=O)N[C@@H](Cc1ccccc1)C(N)=O [Sincalide, reference compound]
AC50 ([1]; cell-free coactivator recruitment, read-out: TRa-coa-Ag AC50): > 92 µM
TRa-coa hitc ([1]; hit call from tcpl, agonist): 0
Emax ([1]; read-out: EMax (% of Control) tra-coa-agonist-followup-1): -0.4%
AC50 ([2]; HEK 293T one-hybrid, agonist mode, inactive set to 1,000, read-out: RXRa-bla-Ag AC50): 10.5 µM
tr-followup-rxr-bla-agonist-1 hitc ([2]; hit call from tcpl): 1
Emax ([2]; read-out: EMax (% of Control) tr-followup-rxr-bla-agonist-1): 36.1%
AC50 ([3]; cell-free coactivator recruitment, read-out: TRb-coa-Ag AC50): > 92 µM
TRb-coa hitc ([3]; hit call from tcpl, agonist): 0
Emax ([3]; read-out: EMax (% of Control) trb-coa-agonist-followup-1): -0.125%
AC50 ([4]; HEK 293T one-hybrid, agonist mode, read-out: TRb-bla-Ag AC50): > 92 µM
TRb-bla hitc ([4]; hit call from tcpl, agonist): 0
TR_LUC_GH3_Antagonist_viability hitc [5]: 0
AC50 [6]: > 92 µM
GLOBAL CYTOTOXICITY cytotox.median [7]: >92
GLOBAL CYTOTOXICITY cytotox.number_Active [7]: 0
EMax (% of Control) gh3-tre-agonist [8]: 80.1 % of Control
GH3-TRE-Ag AC50 hitc ([8]; hit call from tcpl): 1
AC50 ([8]; primary qHTS, agonist mode, 24 h, top concentration 92 μM, read-out: GH3-TRE-Ag AC50): 12.4 µM
EMax (% of Control) gh3-tre-agonist-followup-1_agonist [10]: 19.9 % of Control
AC50 ([10]; confirmation, agonist mode, read-out: GH3-TRE-Ag-Followup AC50): 8.59 µM
GH3-TRE-Ag-Followup hitc ([10]; hit call from tcpl): 0
